Data on one compound can be found in patent publication US20030104079A1, “Skin tissue regeneration promoters comprising ginsenoside Rb1” (Japan Science and Technology Corporation, Japan, priority 2000, published 2003).

SMILES strings stand for the structures. Entries after “also recorded” stand apart in the source; their conditions may differ.

The subject of one data set is open wound of rat skin. Briefly: Open wound healing by external or topical application to skin (propet ointment). Format: in vivo, rats. From the text: For that purpose, for example, by using Wistar male rats (body weight about 300 g), the punch biopsies with diameter 6 mm were made in the dorsal region of animals after shaving under inhalation anesthesia to prepare 3 regions of open wound. Among them, 0.1 g of ophthalmic white Vaseline (Propet) containing 0.01% by weight or 0.001% by weight of ginsenoside Rb1 was spread once for every day in two regions, and in the remaining open wound, the equal amount of ophthalmic white Vaseline (propet) was spread. Nine days after preparing open wound, the skin including wound regions was photographed. Further, we have examined the effects of external or topical cutaneous spread of 0.0001% by weight, 0.00001% by weight or 0.000001% by weight of ginsenoside Rb1 by the same procedure. Experimental animals were euthanized by anesthetia immediately before photographing, then wound regions were dissected out after photographing or after dissecting out wound regions, photographing was performed. Thereafter, the wound region tissues were stored in the fixative. FIG. 5 and FIG. 6 are photographs in place of drawings.
The punch biopsy with diameter 6 mm was performed in the dorsal 6 regions of each animal under inhalation anesthesia to prepare open wound. Thereafter, 0.1 g of propet (ophthalmic white vaseline) containing ginsenoside Rb1 at the concentrations of 0.0001% by weight (10^−4% by weight), 0.00001% by weight (10^−5% by weight), 0.000001% by weight (10^−6% by weight), 0.0000001% by weight (10^−7% by weight) and 0.00000001% by weight (10^−8% by weight), respectively, was applied externally, once a day, for 9 days on each open wound. The equal amount of propet alone was applied externally or topically in the control animals. Then, immediately after euthanasia by anesthetization, the skin containing the open wound was dissected out and photographed. The collected skin tissue was preserved in a fixative. FIG. 12 is a photograph in place of drawing.
In each case, there are three wounds on the left side and three wounds on the right side, totally 6 marks of open wounds.
In the experimental cases hereinbefore explained, an area of open wound (flair region) applied externally only with propet is set as a denominator and an area of open wound administered externally with ginsenoside Rb1 at concentrations from 10^−4% by weight to 10^−8% by weight is set as a numerator, and ratio thereof is calculated. In FIG. 13, n=3 and single asterisk (*) indicates significant difference, P<0.05, and two asterisks (**) indicate significant difference, P<0.01. Statistical test was performed according to Scheffe's post hoc test.
Details of dihydroginsenoside Rb1 is described in the specification of PCT/JP00/04102 (Brain cell or nerve cell protecting agents comprising ginseng). The punch biopsy with diameter 6 mm was performed at 5 places in the dorsal region of rats (n=4) under inhalation anesthesia to prepare open wound. Thereafter, 0.1 g of propet containing dihydroginsenoside Rb1 at concentrations of 0.0001% by weight (10^−4% by weight), 0.00001% by weight (10^−5% by weight), 0.000001% by weight (10^−6% by weight) and 0.0000001% by weight (10^−7% by weight), respectively, was applied topically or externally, once a day, for 9 days onto each open wound. The equal amount of propet alone was applied externally or topically in the control animals. Then, immediately after euthanasia by anesthetization, the skin containing the open wound was dissected out and photographed. The collected skin tissue was preserved in a fixative. FIG. 14 is a photograph in place of drawing. In FIG. 14, four cases are shown, and from the upper column, the first case, the second case, the third case and the fourth case are shown.

A further data set relates to Bcl-xL gene. As to conditions: continuous intravenous administration 60 μg/day; cited from earlier work.
For the next data set, the system named is open wound of skin. Briefly: Open wound healing by intravenous preinfusion before punch biopsy. Type of data set: in vivo, Wistar rats. Here is the method:
Then, we (the present inventors) have examined whether intravenous administration of ginsenoside Rb1 before preparation of open wound of skin can promote regeneration and/or reconstruction of the skin tissue. For that purpose, ginsenoside Rb1 (12 μg) dissolved in physiological saline was intravenously administered once into male Wistar rats (body weight about 300 g), under inhalation anesthesia, subsequently, continuous intravenous infusion of ginsenoside Rb1 (12 μg/day) was conducted for 4 days by using an Alza osmotic minipump. Thereafter, the punch biopsy with diameter 6 mm was performed in the dorsal skin region of animals under inhalation anesthesia to make open wound, and simultaneously, ginsenoside Rb1 was continuously infused intravenously for 3 days.
An equal amount of physiological saline was administered intravenously in the control animals, for which the same open wound was prepared to leave the animals as they were.
On day 2 after finishing continuous intravenous administration of ginsenoside Rb1 or physiological saline (i.e. on day 5 after preparation of the open wound), the animals were anesthetized with pentobarbital and fixed transcardially with perfusion of 0.1 M phosphate buffer containing 4% paraformaldehyde. Thereafter, the skin tissue including the open wound was dissected out, post-fixed and embedded in paraffin according to the conventional method. Paraffin sections 5 μm thick were cut and stained with hematoxylin-eosin (HE). FIG. 3 is a photograph in place of drawing. […] “i” indicates incrustation or eschar, “ep” indicates stratified squamous epithelium of epidermis, and “by” indicates blood vessel.
Intravenous administration of physiological saline solution containing ginsenoside Rb1 (12 μg) was conducted once in male Wistar rats weighing about 300 g under inhalation anesthesia, subsequently, ginsenoside Rb1 was continuously infused intravenously for 4 days through an Alza osmotic minipump at a dose of 12 μg/day. […]

For the compound `CC(C)=CCC[C@](C)(O[C@@H]1O[C@H](CO[C@@H]2O[C@H](CO)[C@@H](O)[C@H](O)[C@H]2O)[C@@H](O)[C@H](O)[C@H]1O)[C@H]1CC[C@]2(C)[C@@H]1[C@H](O)C[C@@H]1[C@@]3(C)CC[C@H](O[C@@H]4O[C@H](CO)[C@@H](O)[C@H](O)[C@H]4O[C@@H]4O[C@H](CO)[C@@H](O)[C@H](O)[C@H]4O)C(C)(C)[C@@H]3CC[C@]12C` [ginsenoside Rb1], in the data set with open wound of rat skin (0.0000001% by weight (10^−7% by weight) or less, i.e. 1 ng/g or less), the “open wound reduction (FIG. 13)” value is given as “reduced significantly the open wound”. Also, the “ratio of open wound area to propet alone (FIG. 13)” value with open wound of rat skin (10^−4% to 10^−8% by weight, n=3, Scheffe's post hoc test) is on record as “wound healing was significantly promoted”. The “area of the open wound relative to control” value in the data set on open wound of rat skin (concentrations around 10^−8% by weight) was “about ¼”. Besides, the “growing hair in regions of wound healing (FIG. 12)” value in the data set on open wound of rat skin (external administration of the low concentrations of ginsenoside Rb1) is reported as “growing hair was obviously observed”. Further, the “hair restoration or hair growth from regenerated open wound” value in the data set with open wound of rat skin (extracutaneous administration of 0.000001% by weight) was “obvious hair restoration or hair growth”. In addition, in the data set with open wound of rat skin (ginsenoside Rb1 at 0.0001%, 0.00001%, 0.000001%, 0.0000001% or 0.00000001% by weight), the “area of open wound region relative to control” value is “½-¼”. Further, in the data set with open wound of rat skin (low concentrations, worked out from the area reduction), the “volume of the open wound relative to control” value is on record as “about ⅛”. Further, the “effectiveness on open wound (FIG. 6)” value with open wound of rat skin (propet containing 0.00001% or 0.000001% by weight, compared with 0.0001% by weight) was “superior effectiveness as compared with propet containing 0.0001% by weight”. Besides, in the data set on open wound of rat skin (propet containing 0.001% by weight, 0.1 g once every day, day 9), the “open wound area vs propet alone (FIG. 5)” value is given as “slightly reduced”. For the same compound, the “open wound vs propet alone control (FIG. 5)” value in the data set with open wound of rat skin (propet containing 0.01% by weight, 0.1 g once every day, day 9) is listed as “trivial; also recorded: no difference”. The “wound healing vs propet alone (FIG. 12)” value with open wound of rat skin (propet containing 10^−6% to 10^−8% by weight (10 ng/g to 100 pg/g), once a day for 9 days) is “wound healing was obviously promoted”. In addition, the “expression of cell death-suppressing factor Bcl-xL gene in brain and nervous tissues” value with Bcl-xL gene is “caused an increase in the expression”. For the same compound, the “regeneration, generation and reconstruction of ruptured and excised blood vessels (FIG. 3)” value in the data set with open wound of skin (12 μg/day iv 4 days before and 3 days after open wound, day 5 after open wound) was “facilitated”. The “regeneration and reconstruction of skin tissue (FIG. 3)” value in the data set with open wound of skin (12 μg/day iv 4 days before and 3 days after open wound, day 5 after open wound, vs physiological saline) is “regeneration and reconstruction of skin tissue were obviously promoted”. Further, the “effect on healthy tissues, ginsenoside Rb1-administered vs physiological saline-administered case” value with open wound of skin (continuous intravenous administration of low dosages) was “no clear difference was observed”.
